Measured values as given in patent US5457106A, “Pyridine derivatives, their production and use” (Takeda Chemical Industries, Ltd., priority 1991, dated 1995).
Structures can show the parent of a compound that is named as a salt. Where two headings read alike, the source gives them in different places.

What was measured:
[1] = tested on: brewer's yeast induced pyrexia; assay: Antipyretic activity (brewer's yeast induced pyrexia); assay type: in vivo, rat (DS line); settings: 50 mg/kg, orally; for Antipyretic activity, .increment. °C.: at peak time
Method: Antipyretic Activity Six male DS line rats, 7 weeks old, weighing 200 to 240 g (Nihon Clea) per one group were used. According to the method of Winder et al. (J. Pharmac. Exp. Ther. 138: 405 (1963)), a suspension of 15% brewer's yeast (Sigma) in physiological saline (1 ml/100 g, b.w.) was injected subcutaneously at 16 hours before measurement of the body temperature to induce pyrexia. After injection of yeast, only water was provided, and each rat was bred separately in a five duplicate cage. At 16, 17 and 18 hours after yeast injection, the rectal temperature was measured by a thermistor thermometer (Takara Kogyo K.K.), and this was taken as the basal body temperature. […] Animals having the body temperature of not lower than 38.5° C. at 18 hours after yeast injection were selected, and a test compound was administered orally (1 ml/100 g, b.w.). As a control, only the solvent was provided. Upon administration, the body temperature of the control group and that of the test compound-administered group were adjusted to the same temperature. The rectal temperature was measured every hour till five hours after administration.

[2] = tested on: Mouse phenylquinone writhing; assay: Mouse phenylquinone writhing inhibitory activity; assay type: in vivo, mouse (Slc: ICR); settings: Mus musculus, po, 20 min, 50 mg/kg, orally; read-out: Inhibitory percentage (phenylquinone writhing)
Summary of the method: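 Male ICR mice (4 weeks, 17–24 g) dosed orally with compound suspended in 5% gum arabic. After 30 min, 0.02% phenylquinone (0.1 ml/10 g) given i.p.; writhing and stretching responses counted over 20 min.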

[3] = tested on: ART (antigen-responding T-cell); assay: In vitro ART (antigen-responding T-cell) proliferation test; assay type: cell-based, Lewis rat; settings: Rattus norvegicus, T-cell, read-out: % Inhibition of ART growth
[4] = tested on: Rat reversed passive Arthus reaction (skin); assay: Rat reversed passive Arthus reaction (skin) inhibitory activity; assay type: in vivo, rat (Jcl: SD); settings: po, orally, read-out: Inhibitory percentage (reversed passive Arthus reaction)
Method: Rat Reversed Passive Arthus Reaction (skin) Inhibitory Activity This reaction was-induced by using domestic rabbit anti-egg albumin (EA) antiserum according to the method of Chang and Otterness [Chang, Y. -H. and Otterness, I. G.: Eur. J. Pharmacol. 69, 155 (1981)]. Using six Jcl: SD male rats (7 weeks old, weight about 250 g) per one group, the hair was removed from the back under ether anesthesia, 1 ml of 0.5% EA physiological saline was injected […] into the tail vein, and further each 0.1 ml of diluted antiserum (6 mg protein antibody/ml) was injected in the back on both dexter and sinister sides. […] Acceleration of permeability through the vessel by the reaction was measured by injecting 1 ml of 1% Evans blue physiological saline intravenously at three hours after the induction of the reaction. Then, after 30 minutes, the rat was sacrificed by exsanguination. The skin was peeled off and the area of pigment spot (length×breadth, mm^2) was measured.

cyclooxygenase = target: T1, cyclooxygenase (Rattus norvegicus, UniProt Q63921); assay: Cyclooxygenase inhibitory activity (HHT formation from arachidonic acid in rat platelet-rich plasma); assay type: cell-based, rat (Jcl:wistar)
T1 construct: from tissue; host or cells: platelets in platelet-rich plasma from rat abdominal aorta blood (Jcl:wistar, male)
T1 sequence (Q63921 27-602): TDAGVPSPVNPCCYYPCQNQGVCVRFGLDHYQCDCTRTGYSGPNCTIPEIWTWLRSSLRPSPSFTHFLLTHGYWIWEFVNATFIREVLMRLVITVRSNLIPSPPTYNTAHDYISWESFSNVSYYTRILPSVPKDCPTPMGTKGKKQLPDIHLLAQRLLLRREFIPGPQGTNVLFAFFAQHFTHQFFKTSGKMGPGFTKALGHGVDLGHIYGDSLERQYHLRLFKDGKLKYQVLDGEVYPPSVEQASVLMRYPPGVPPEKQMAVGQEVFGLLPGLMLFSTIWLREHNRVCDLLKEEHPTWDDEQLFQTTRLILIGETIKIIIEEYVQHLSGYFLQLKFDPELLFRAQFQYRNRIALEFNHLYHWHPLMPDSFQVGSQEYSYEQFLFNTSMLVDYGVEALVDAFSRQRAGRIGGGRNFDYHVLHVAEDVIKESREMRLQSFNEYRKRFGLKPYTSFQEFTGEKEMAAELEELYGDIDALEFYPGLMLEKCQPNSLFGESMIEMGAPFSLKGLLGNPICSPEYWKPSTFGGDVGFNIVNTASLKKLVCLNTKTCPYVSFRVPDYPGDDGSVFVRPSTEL

[5] = tested on: Mouse acetic acid writhing; assay: Mouse acetic acid writhing inhibitory activity; assay type: in vivo, mouse (Slc: ICR); settings: Mus musculus, po, 20 min, orally, read-out: Inhibitory percentage (acetic acid writhing)
Method: Mouse Acetic Acid Writhing Inhibitory Activity
Ten male Slc: ICR mice, 4 weeks old, per 1 group were used. A test compound was administered orally, and after 30 minutes, 0.1 ml/10 g body weight of physiological saline containing 0.6% acetic acid was injected intraperitoneally. For 20 minutes, writhing (in agony condition) response by administration of acetic acid was counted regarding individual animals. The inhibitory percentage relative to the mean response counts of a control group was calculated regarding respective animals in a test compound administration group. The test compound was suspended in 5% gum arabic solution, and the administration volume was 0.2 ml/10 g.

[6] = tested on: Rat carrageenin pedal edema; assay: Rat carrageenin pedal edema inhibitory activity; assay type: in vivo, rat (Jcl: SD); settings: Rattus norvegicus, po, 3 h, 50 mg/kg, orally, 3 hours after carrageenin; read-out: Inhibitory percentage (carrageenin pedal edema)
Summary of the method: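 Male Jcl:SD rats (6 weeks, 160-220 g) received test compound orally as a 5% gum arabic suspension, topped up with water to 5 ml/rat. One hour later 0.05 ml of 1% carrageenin was injected subcutaneously into the right hind foot pad. Edema volume was the foot volume increase 3 hours post-injection.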

ELAM-1 = assay: Adhesion protein expression inhibitory activity, ELAM-1; assay type: cell-based
Method: (§1) Adhesion Protein Expression Inhibitory Activity The various concentrations of test compounds were added to the human umbilical cord-derived vascular endothelial cells [sold by Klabo] which were seeded in the gelatin coat plate and the mixture was incubated at 37° C. for 15 minutes. Then, the human tumor necrosis factor-α[TNF-α; sold by Genzyme] was added therein to the final concentration of 1 ng/ml and incubation was carried out at 37° C. for 3 hours for expression of ELAM-1 and for 6 hours for that of ICAM-I. After the reaction, the cells were fixed using glutaraldhyde and the expression amount of ELAM-1 and ICAM-1 was measured by the cell-ELISA method. That is, the expression was determined by […] the adhesion proteins on the cells in the system using anti-ELAM-1 antibody BBA-2 and anti-ICAM-1 antibody BBA4 as the first antibody as well as horseradish peroxidase-labeled rabbit anti-mouse IgG antibody as the second antibody.

5-Lipoxygenase = target: T2, 5-Lipoxygenase (Rattus norvegicus, UniProt P12527); assay: 5-Lipoxygenase inhibitory activity in rat basophilic leukemia cells; assay type: cell-based
T2 construct: rat basophilic leukemia cell suspension; endogenous in cells
T2 sequence (P12527 1-673): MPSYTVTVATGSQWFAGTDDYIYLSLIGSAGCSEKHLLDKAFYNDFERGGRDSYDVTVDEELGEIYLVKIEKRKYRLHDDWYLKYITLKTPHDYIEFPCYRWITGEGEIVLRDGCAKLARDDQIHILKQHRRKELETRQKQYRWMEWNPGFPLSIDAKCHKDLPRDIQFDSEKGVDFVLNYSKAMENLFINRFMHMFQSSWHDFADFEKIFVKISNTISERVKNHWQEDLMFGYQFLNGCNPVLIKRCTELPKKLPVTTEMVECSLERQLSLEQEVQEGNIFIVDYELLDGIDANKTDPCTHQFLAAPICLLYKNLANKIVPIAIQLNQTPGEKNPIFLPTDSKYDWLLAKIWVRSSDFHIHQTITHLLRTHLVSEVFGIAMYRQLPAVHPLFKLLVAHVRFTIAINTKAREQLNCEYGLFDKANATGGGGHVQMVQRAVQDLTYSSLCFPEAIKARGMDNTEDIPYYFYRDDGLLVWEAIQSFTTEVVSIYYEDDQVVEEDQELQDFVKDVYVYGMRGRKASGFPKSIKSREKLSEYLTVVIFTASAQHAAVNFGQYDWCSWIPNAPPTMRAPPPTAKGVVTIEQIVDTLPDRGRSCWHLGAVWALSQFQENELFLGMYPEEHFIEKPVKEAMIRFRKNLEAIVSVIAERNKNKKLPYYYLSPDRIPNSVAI
Method: 5-Lipoxygenase Inhibitory Activity […] Then, 0.1 ml of mast cell medium containing 50 μg of arachidonic acid and 1 μg of calcium ionophore (A-23187) were added and the mixture was allowed to stand at 37° C. for 15 minutes. Ethanol (1 ml) was added thereto and the mixture was shaken well, and filtered (Membrane filter, 0.45 μm). […] As a control, the measurement was carried out according to the same manner except that 0.01 ml of the solvent used for dissolving the test compound was used in place of the test compound. The inhibitory percentage (%) was calculated from the following equation to obtain IC50.

ICAM-1 = assay: Adhesion protein expression inhibitory activity, ICAM-1; assay type: cell-based; settings: human umbilical vascular endothelial cells, TNF-α, 360 min
Method: as §1

[7] = 10 μM, human umbilical vascular endothelial cells, TNF-α; 180 min

With `CC(C)(C)C(=O)NCCCSc1ccncc1.Cl` [Example 24, 4-[3-(pivaloylamino)propylthio]pyridine hydrochloride] the “Antipyretic activity, peak time” value [1] was 2 h, the “Antipyretic activity, .increment. °C.” value [1] was -1.33 °C and the inhibition in vivo at 50 mg/kg [2] was 56%. It also gave an inhibition at 1 µM [3] of 29%, an inhibition at 10 µM [3] of 35% and an inhibition in vivo at 50 mg/kg [4] of 46%.

`O=C(NCCCSc1ccncc1)C(F)(F)F` [Example 25, 4-[3-(trifluoroacetylamino)propylthio]pyridine hydrochloride] was tested, and the inhibition in vivo at 50 mg/kg [2] was 60%, the IC50 (cyclooxygenase) was 3.4 µM and the inhibition at 1 µM [3] was 44%. For the same compound, the inhibition at 10 µM [3] was -7% and the inhibition in vivo at 50 mg/kg [4] was 24%.

`CCCCOc1ccc(C(=O)NCCCSc2ccncc2)cc1` [Example 35, 4-[3-(4-n-butoxybenzoylamino)propylthio]pyridine hydrochloride] gave an inhibition in vivo at 50 mg/kg [2] of 60%, an IC50 (cyclooxygenase) of 2.3 µM and an inhibition at 1 µM [3] of 18%. The inhibition at 10 µM [3] was 33% and the inhibition in vivo at 50 mg/kg [4] was 30%.

`O=C(NCCCSc1ccncc1)c1cccnc1` [Example 41, 4-[3-(nicotinoylamino)propylthio]pyridine] showed an inhibition in vivo at 50 mg/kg [2] of 73%, an IC50 (cyclooxygenase) of 11.3 µM and an inhibition in vivo at 50 mg/kg [4] of 35%.

In the case of `O=C(NCCCSc1ccncc1)c1ccco1` [Example 53, 4-[3-(2-furoylamino)propylthio]pyridine], the IC50 (cyclooxygenase) is reported as 8.6 µM and the inhibition in vivo at 50 mg/kg [4] is reported as 21%.

`O=C(C=Cc1cccs1)NCCCSc1ccncc1` [Example 56, 4-[3-(2-thiopheneacrylamino)propylthio]pyridine] gave an inhibition in vivo at 50 mg/kg [4] of 32%.

For `O=C(NCCCSc1ccncc1)c1cnccn1` [Example 124, 4-[3-(2-pyrazinecarbonylamino)propylthio]pyridine], the “Antipyretic activity, peak time” value [1] was 2 h, the “Antipyretic activity, .increment. °C.” value [1] was -1.52 °C and the IC50 (cyclooxygenase) was 5.5 µM. It also gave an inhibition in vivo at 50 mg/kg [5] of 69% and an inhibition in vivo at 50 mg/kg [6] of 51%.

With `O=c1[nH]c2ccccc2c(=O)n1CCCCSc1ccncc1` [Example 146, 3-[4-(4-pyridylthio)butyl]quinazolin-2,4(1H,3H)-dione] the IC50 (cyclooxygenase) was 5.1 µM, the “Expression Inhibitory Potency, ELAM-1” value (ELAM-1; 13 μM, human umbilical vascular endothelial cells, TNF-α; 180 min) was 33% and the inhibition at 1 µM [3] was 22%. The inhibition at 10 µM [3] was 20%.

`O=C1C(=Cc2ccccc2)SC(=S)N1CCCCSc1ccncc1` [Example 153, 4-[4-(5-benzylidenerhodanine)butylthio]pyridine] was tested, and the inhibition at 1 µM [3] was -20%, the inhibition at 10 µM [3] was 75% and the IC50 (5-Lipoxygenase; 5-HETE, read-out: 5-Lipoxygenase inhibitory activity, 5-HETE IC50) was 1.3 µM. It also gave an IC50 (5-Lipoxygenase; LTB4, read-out: 5-Lipoxygenase inhibitory activity, LTB4 IC50) of 0.79 µM and an inhibition in vivo at 50 mg/kg [5] of 49%.

With `O=C1c2ccccc2S(=O)(=O)N1CSc1ccncc1` [Example 172, 4-saccharinmethylthiopyridine] the “Expression Inhibitory Potency, ELAM-1” value (ELAM-1; 13 μM, human umbilical vascular endothelial cells, TNF-α, 180 min) was 31%, the “Expression Inhibitory Potency, ICAM-1” value (ICAM-1; 13 μM) was 34% and the inhibition in vivo at 50 mg/kg [6] was 19%.

In the case of `O=C1c2ccccc2S(=O)(=O)N1CSc1ccncc1` [Example 180, 4-(saccharinmethylthio)pyridine hydrochloride], the “Expression Inhibitory Potency, ELAM-1” value (ELAM-1; 13 μM, human umbilical vascular endothelial cells, TNF-α, 180 min, hydrochloride) is reported as 29% and the “Expression Inhibitory Potency, ICAM-1” value (ICAM-1; 13 μM, hydrochloride) is reported as 35%.

For `O=C1SC(=Cc2ccncc2)C(=O)N1CCCCSc1ccncc1` [Example 184, 4-[4-[5-(4-pyridyl)methylene-2,4-thiazolidinedione]butylthio]pyridine], the “Expression Inhibitory Potency, ELAM-1” value (ELAM-1; [7]) was 47%.

For `O=C1SC(=Cc2cccnc2)C(=O)N1CCCCSc1ccncc1` [Example 185, 4-[4-[5-(3-pyridyl)methylene-2,4-thiazolidinedione]butylthio]pyridine], the “Expression Inhibitory Potency, ELAM-1” value (ELAM-1; [7]) was 33%.

`CCCCCCCCCC=C1SC(=O)N(CCCCSc2ccncc2)C1=O` [Example 187, 4-[4-(5-nonylmethylene-2,4-thiazolidinedione)butylthio]pyridine hydrochloride] was tested, and the “Expression Inhibitory Potency, ELAM-1” value (ELAM-1; [7]) was 53% and the “Expression Inhibitory Potency, ICAM-1” value (ICAM-1; 10 μM) was 79%.
